From US20100120788A1, “IDENTIFICATION OF POLYNUCLEOTIDES FOR […] OF COMPOUNDS THAT […] WITH AND/OR MODULATE PROTEIN TYROSINE KINASES AND/OR PROTEIN TYROSINE KINASE […] IN PROSTATE CELLS” (Bristol-Myers Squibb Company, priority 2007, published 2010)

Assays:
[1] = tested on: secreted uPA protein in PC3 cells; experiment: uPA protein ELISA assay of culture medium; type: cell-based, human; conditions: different doses, 24 h, per 50,000 viable cells
Text: FIG. 3. PLAU gene expression and regulation by dasatinib analyzed at mRNA and protein levels. (A) Differential baseline expression of PLAU gene between resistant (R, in black) and sensitive (S, in red) cell lines. The X-values are the expression level in log2-scale. The resistant cell line expressing high level of PLAU was WPMY1 and the sensitive cell line expressing low level of PLAU was LNCaP. (B) Down-regulation of PLAU mRNA level by dasatinib-treatment in 5 sensitive cell lines. The cells were treated with 100 nM dasatinib (+D) or DMSO (Ctrl) for 48 hours. The p value was 0.048 in paired t-test, indicating a significant reduction of PLAU mRNA following dasatinib treatment. (C) Correlation between dasatinib-induced PLAU mRNA down-regulation with the sensitivity of cell lines to dasatinib. […] The amount of uPA protein secreted into the culture medium by 50,000 viable cells was assessed by ELISA assay. […]
Cell were seeded in 24-well plates at density of 25,000 cells/well. […] Total number of cells were also quantitated using a cell counter, and the number of viable cells were assessed with Trypan Blue. The amount of uPA protein in the supernatant was determined using the uPA ELISA kit (America Diagnostica, Stamford, Conn.), and the concentrations of uPA secreted by 50,000 viable cells into the medium were calculated.

[2] = tested on: PWR1E, RWPE2, PC3, DU145 and LNCaP cells; experiment: Microarray gene expression profiling of drug-treated vs mock-treated cell lines (genes modulated by BMS-A); type: cell-based, human
Experimental: AFFYMETRIX® HG-U133v2 gene chips containing ˜22,000 probe sets were used for gene expression profiling (Affymetrix, Santa Clara, Calif.). Total RNA was isolated from the cells using the RNeasy kits (Qiagen, Valencia, Calif.). The quality of the RNA was assessed using an Agilent 2100 Bioanalyzer (Agilent, Santa Clara, Calif.). Ten μg of total RNA was used for the preparation of biotin-labeled cRNA. Chip hybridization, scanning and data acquisition were performed according to the Expression Analysis Technical Manual provided by the manufacturer.
The raw expression data were normalized using an RMA algorithm and analyzed in PARTEK® Discovery Suite software (Partek, St Louis, Mo.). Two statistical analyses including 1-way ANOVA for comparison of gene expression between sensitive and resistant cell line groups, and Pearson correlation between gene expression level and log2IC50 values were performed to identify genes whose baseline expression levels correlated with the sensitivity to dasatinib in 16 prostate cell lines (p value<0.05 in both analyses). […] ESTs and gene duplicates were eliminated from the final list. Gene expression profiles of drug treated (100 nM for 2 days) cell lines were compared with those of DMSO control using paired t-test (p value<0.05). Clustering analysis was performed using GeneCluster software and heatmaps were generated with red and green indicating high or low expression respectively.

PC3 xenograft tumors = experiment: PC3 xenograft tumor growth; type: in vivo, nu/nu athymic mice; conditions: 15 or 30 mg/kg orally twice a day, 5-day-on 2-day-off, 20 doses
Experimental: FIG. 5. […] Xenograft tumors were established subcutaneously in nu/nu athymic mice. The mice were divided into three groups each with 8 mice after tumors had reached approximately 200 mg. […] Dasatinib was administered orally twice a day on a 5-day-on 2-day-off schedule for 20 doses. The tumor size measurement and blood sampling were performed prior to treatment and weekly for two weeks after treatment initiation. […] Experiments were performed as described in Example 2.
The mice were divided into three groups each with 8 mice after tumors had reached approximately 200 mg. […] Dasatinib was administered orally twice a day on a 5-day-on 2-day-off schedule for 20 doses. The tumor size measurement and blood sampling were performed prior to treatment and weekly for two weeks after treatment initiation. Tumor weight was determined using the following equation: tumor weight=(length*width^2)/2.

[3] = 100 nM for 2 days vs DMSO control, paired t-test p<0.05, 5 sensitive cell lines

Cc1nc(Nc2ncc(C(=O)Nc3c(C)cccc3Cl)s2)cc(N2CCN(CCO)CC2)n1 [BMS-A, N-(2-chloro-6-methylphenyl)-2-[[6-[4-(2-hydroxyethyl)-1-piperazinyl]-2-methyl-4-pyrimidinyl]amino]-5-thiazolecarboxamide]
amount of uPA protein secreted into the growth medium [1]: reduced | Modulated by BMS-A: ANXA3 (annexin A3) expression [2, 3]: Decreased | Modulated by BMS-A: ARNTL2 expression [2, 3]: Decreased | Modulated by BMS-A: AXL expression [2, 3]: Decreased | Modulated by BMS-A: CST6 (cystatin E/M) expression [2, 3]: Decreased | Modulated by BMS-A: EREG (epiregulin) expression [2, 3]: Decreased | Modulated by BMS-A: FHL2 expression [2, 3]: Decreased | Modulated by BMS-A: LAMC2 (laminin, gamma 2) expression [2, 3]: Decreased | Modulated by BMS-A: PLAU (plasminogen activator, urokinase) expression [2, 3]: Decreased | Modulated by BMS-A: SCEL (sciellin) expression [2, 3]: Decreased | Modulated by BMS-A: ZBED2 expression [2, 3]: Decreased | Modulated by BMS-A (p < 0.05): AXL expression ([2]; gene AXL receptor tyrosine kinase (AXL), probe 202686_s_at, Gene No. 52, expressed in sensitive cell lines): decreased | Modulated by BMS-A (p < 0.05): ANXA3 expression ([2]; gene annexin A3 (ANXA3), probe 209369_at, Gene No. 8, expressed in sensitive cell lines): decreased | Modulated by BMS-A (p < 0.05): ARNTL2 expression ([2]; gene aryl hydrocarbon receptor nuclear translocator-like 2 (ARNTL2), probe 220658_s_at, Gene No. 100, expressed in sensitive cell lines): decreased | Modulated by BMS-A (p < 0.05): CST6 expression ([2]; gene cystatin E/M (CST6), probe 206595_at, Gene No. 15, expressed in sensitive cell lines): decreased | Modulated by BMS-A (p < 0.05): EREG expression ([2]; gene epiregulin (EREG), probe 205767_at, Gene No. 43, expressed in sensitive cell lines): decreased | Modulated by BMS-A (p < 0.05): FHL2 expression ([2]; gene four and a half LIM domains 2 (FHL2), probe 202949_s_at, Gene No. 54, expressed in sensitive cell lines): decreased | Modulated by BMS-A (p < 0.05): LAMC2 expression ([2]; gene laminin, gamma 2 (LAMC2), probe 202267_at, Gene No. 33, expressed in sensitive cell lines): decreased | Modulated by BMS-A (p < 0.05): PLAU (uPA) expression ([2]; gene plasminogen activator, urokinase (PLAU, also referred to as uPA), probe 205479_s_at, Gene No. 63, expressed in sensitive cell lines): decreased | Modulated by BMS-A (p < 0.05): SCEL expression ([2]; gene sciellin (SCEL), probe 206884_s_at, Gene No. 3, expressed in sensitive cell lines): decreased | PC3 xenograft tumor growth (PC3 xenograft tumors): inhibited
